Data on one compound can be found in US20240252496A1, “SELECTIVE HYPOTHALAMUS PERMEABLE HDAC6 INHIBITORS FORTREATMENT OF LEPTIN-RESISTANT OBESITY” (The Children’s Medical Center Corporation, priority 2022, published 2024).

The target of one data set is HDAC6 (Homo sapiens (Human), UniProt Q9UBN7). The following applies: cited from earlier work.
The test system of data set [1] is DIO mice. Nature of the data set: Chronic treatment of DIO mice (body weight, food intake, leptin, DEXA). The format is in vivo. The conditions noted are these: high fat diet induced mice, summary. On the procedure: DIO mice were treated with ACY775 (10 mg/kg/day, i.p.) for 3 weeks. Daily body weight (g) of DIO mice treated with vehicle (n=17) or ACY775 (n=17) during 3 weeks of treatment was determined. Daily food intake (g) during 3 weeks of vehicle or ACY775 treatment was assessed. 24 hours' food intake per mouse during the first week of vehicle or ACY775 treatment was determined. Serum leptin (ng/ml) levels after 3 weeks of vehicle (n=24) or ACY775 (n=24) treatment was assessed. Lean mass (g), fat mass (g) and fat percentage (%) after 3 weeks of vehicle (n=17) or ACY775 (n=17) treatment measured by Dual-energy X-ray absorptiometry (DEXA) scan. DEXA scans were performed in two different cohorts. Glucose tolerance test (GTT) after 1 week of vehicle (n=33) or ACY775 (n=26) treated DIO mice was assessed. Area of curve (AOC) analysis for GTT was performed. Blood glucose (mg/dl) levels after 1 week of vehicle (n=17) or ACY775 (n=16) were assessed in treated DIO mice. Insulin tolerance test (ITT) was performed after 2 weeks of vehicle (n=31) or ACY775 (n=21) treatment of DIO mice. Serum insulin (ng/ml) levels were measured after 3 weeks of vehicle (n=22) or ACY775 (n=21) in treated DIO mice. A homeostatic model assessment of insulin resistance (HOMA-IR) was analyzed after 3 weeks of vehicle (n=14) or ACY775 (n=13) treated DIO mice.
Food intake was analyzed hourly until 3:00 am. […] DEXA scans were performed in two different cohorts.
DIO mice then were treated with ricolinostat (50 mg/kg, i.p.) for 3 weeks. Daily body weight (g), daily food intake (g), serum leptin (ng/ml) levels after 3 weeks of vehicle (n=8) or ricolinostat (n=8) treatment, lean mass (g); fat mass and fat percentage (%) after 3 weeks of vehicle (n=16) or ricolinostat (n=17) treatment measured by DEXA scan were determined.
Studies were conducted as described above with reference to ACY775.
DIO mice then were treated with bavarostat (10 mg/kg, i.p.) for 3 weeks and daily body weight (g) of DIO mice treated with Veh (n=9) or bavarostat (n=9) measured during the three weeks of treatment period. Daily food intake (g) during 3 weeks of Veh or bavarostat treatment was also measured.
ACY1083 was administered to DIO mice as described in Example 3.

Data set [2] concerns DIO mice. Described as above. The conditions noted are these: oral administration. The format is in vivo.
For data set [3] the following is noted: in words; cited from earlier work.

Entries after “also recorded” stand apart in the source; their conditions may differ.

HDAC6, sequence (Q9UBN7 whole entry, species assumed): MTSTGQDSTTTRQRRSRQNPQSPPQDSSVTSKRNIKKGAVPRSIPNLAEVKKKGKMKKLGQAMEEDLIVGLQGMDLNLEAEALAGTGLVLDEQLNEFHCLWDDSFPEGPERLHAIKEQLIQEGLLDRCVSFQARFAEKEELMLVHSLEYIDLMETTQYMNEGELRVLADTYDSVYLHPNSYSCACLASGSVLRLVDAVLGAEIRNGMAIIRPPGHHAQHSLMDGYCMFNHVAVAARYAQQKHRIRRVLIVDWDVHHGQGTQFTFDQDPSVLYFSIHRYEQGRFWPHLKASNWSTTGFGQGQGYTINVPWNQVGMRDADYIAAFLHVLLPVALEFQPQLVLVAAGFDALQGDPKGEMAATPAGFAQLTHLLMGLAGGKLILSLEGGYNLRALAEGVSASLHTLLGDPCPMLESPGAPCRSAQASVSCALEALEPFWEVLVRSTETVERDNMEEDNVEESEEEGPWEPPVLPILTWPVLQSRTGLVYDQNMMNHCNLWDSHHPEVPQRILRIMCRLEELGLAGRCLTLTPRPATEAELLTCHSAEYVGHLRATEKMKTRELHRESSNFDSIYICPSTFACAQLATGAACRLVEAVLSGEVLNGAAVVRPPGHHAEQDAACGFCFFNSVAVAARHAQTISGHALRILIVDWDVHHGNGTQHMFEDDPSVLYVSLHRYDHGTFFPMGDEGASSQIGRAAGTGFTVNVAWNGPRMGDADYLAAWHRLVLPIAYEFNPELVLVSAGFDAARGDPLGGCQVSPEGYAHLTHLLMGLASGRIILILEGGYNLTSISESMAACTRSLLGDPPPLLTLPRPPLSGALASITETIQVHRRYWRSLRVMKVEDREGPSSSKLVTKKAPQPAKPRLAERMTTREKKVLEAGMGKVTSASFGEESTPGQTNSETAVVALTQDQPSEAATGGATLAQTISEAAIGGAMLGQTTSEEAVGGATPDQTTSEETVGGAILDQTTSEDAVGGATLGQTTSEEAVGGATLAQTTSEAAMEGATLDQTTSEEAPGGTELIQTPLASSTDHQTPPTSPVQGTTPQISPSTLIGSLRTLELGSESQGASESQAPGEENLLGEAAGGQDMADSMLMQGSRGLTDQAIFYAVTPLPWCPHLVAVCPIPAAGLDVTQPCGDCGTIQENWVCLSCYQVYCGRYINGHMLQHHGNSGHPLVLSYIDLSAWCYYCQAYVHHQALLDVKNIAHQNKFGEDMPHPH

On to `O=C(NO)c1cnc(NC2(c3ccccc3)CCC(F)(F)CC2)nc1` [ACY1083], for which the “selectivity for HDAC6 than all other classes of HDAC isoforms” value on HDAC6 is reported as 260 fold. For the same compound, the “food intake and total body fat mass” value with DIO mice [1] was “significant reduction of food intake and total body fat mass”. In the data set on DIO mice [2], the “body weight over 14 days” value is recorded as “significant decrease in body weight; also recorded: Significant weight loss; also recorded: reduced body weight”. Besides, in data set [3], the “brain penetrance / BBB permeability” value is listed as “brain-penetrating”.
